In US20130178597A1, “POLYIMIDE PRECURSOR, POLYIMIDE, AND MATERIALS TO BE USED IN PRODUCING SAME” (UBE INDUSTRIES, LTD., priority 2010, published 2013):

What was measured:
[1] = Light transmittance at 400 nm of a-BPDA powder, 10 mass % in 2 N aqueous sodium hydroxide; assay type: physicochemical; settings: light path 1 cm
[2] = Light transmittance at 400 nm of s-BPDA powder, 10 mass % in 2 N aqueous sodium hydroxide; assay type: physicochemical; settings: light path 1 cm
Description: (§1) A predetermined amount of s-BPDA powder was dissolved in a 2 N aqueous solution of sodium hydroxide to obtain a 10 mass % aqueous solution. Using a MCPD-300 manufactured by Otsuka Electronics Co., Ltd., and a standard cell having a light path length of 1 cm, the light transmittance at 400 nm of the s-BPDA solution was measured using the 2 N aqueous solution of sodium hydroxide as a blank.

[3] = Solubility of s-BPDA at 25° C. in solvent; settings: s-BPDA in the solvent used in the example
Description: The non-dissolved s-BPDA was filtered through filter paper 5A manufactured by Advantec, Inc. to obtain s-BPDA saturated solution. 5 g of the s-BPDA saturated solution was charged into an aluminum dish, heated for 1 hour at 80° C., and then heated for 1 hour at 200° C. The solubility was calculated by determining the mass of s-BPDA remaining in the saturated solution based on the residue after heating.

[4] = Light transmittance at 400 nm of i-BPDA powder, 10 mass % in 2 N aqueous sodium hydroxide; assay type: physicochemical; settings: light path 1 cm
Description: as §1, with “i-BPDA” for “s-BPDA”

[5] = Solubility of i-BPDA at 25° C. in solvent; assay type: physicochemical; settings: i-BPDA in the solvent used in the example
Description: The non-dissolved i-BPDA was filtered through filter paper 5A manufactured by Advantec, Inc. to obtain i-BPDA saturated solution. 5 g of the i-BPDA saturated solution was charged into an aluminum dish, heated for 1 hour at 80° C., and then heated for 1 hour at 200° C. The solubility was calculated by determining the mass of i-BPDA remaining in the saturated solution based on the residue after heating.

[6] = Light transmittance at 400 nm of trans-1,4-diaminocyclohexane powder, 10 mass % in pure water; assay type: physicochemical; settings: light path 1 cm
Description: as §1, with “trans-1,4-diaminocyclohexane” for “s-BPDA”, “pure water” for “a 2 N aqueous solution of sodium hydroxide”, “pure water” for “the 2 N aqueous solution of sodium hydroxide”

[7] = Light transmittance of solvent at 400 nm after heating with refluxing; assay type: physicochemical; settings: heated to reflux for 3 hours under nitrogen atmosphere
Description: For light transmittance after heating with refluxing, measurement was carried out using a solvent that had been heated to reflux for 3 hours under nitrogen atmosphere having oxygen concentration of 200 ppm or less.

[8] = Light transmittance of solvent at 400 nm; assay type: physicochemical; settings: light path 1 cm, water as a blank
Description: Using a MCPD-300 manufactured by Otsuka Electronics Co., Ltd., and a standard cell having a light path length of 1 cm, the light transmittance of a solvent at 400 nm was measured using water as a blank.

## O=C1OC(=O)c2cc(-c3cccc4c3C(=O)OC4=O)ccc21 [Comparative Example C1, 2,3,3′,4′-Biphenyltetracarboxylic dianhydride, reference compound]
[1]
  light transmittance at 400 nm (a-BPDA powder): 77%

## O=C1OC(=O)c2cc(-c3cccc4c3C(=O)OC4=O)ccc21 [Comparative Example C2, 2,3,3′,4′-Biphenyltetracarboxylic dianhydride, reference compound]
[1]
  light transmittance at 400 nm (a-BPDA powder): 81%

## O=C1OC(=O)c2cc(-c3cccc4c3C(=O)OC4=O)ccc21 [Comparative Example C4, 2,3,3′,4′-Biphenyltetracarboxylic dianhydride, reference compound]
[1]
  light transmittance at 400 nm (a-BPDA powder): 84%

## O=C1OC(=O)c2cc(-c3ccc4c(c3)C(=O)OC4=O)ccc21 [Comparative Example D1, 3,3′,4,4′-Biphenyltetracarboxylic dianhydride, reference compound]
[2]
  light transmittance of obtained s-BPDA powder at 400 nm: 75%

## O=C1OC(=O)c2cc(-c3ccc4c(c3)C(=O)OC4=O)ccc21 [Comparative Example D2, 3,3′,4,4′-Biphenyltetracarboxylic dianhydride, reference compound]
[2]
  light transmittance of obtained s-BPDA powder at 400 nm: 75%
[3]
  Solubility of used solvent at 25° C.: <0.1 g/100 g

## O=C1OC(=O)c2cc(-c3ccc4c(c3)C(=O)OC4=O)ccc21 [Comparative Example D3, 3,3′,4,4′-Biphenyltetracarboxylic dianhydride, reference compound]
[2]
  light transmittance of obtained s-BPDA powder at 400 nm: 75%
[3]
  Solubility of used solvent at 25° C.: <0.1 g/100 g

## O=C1OC(=O)c2cc(-c3ccc4c(c3)C(=O)OC4=O)ccc21 [Comparative Example D4, 3,3′,4,4′-Biphenyltetracarboxylic dianhydride, reference compound]
[2]
  light transmittance of obtained s-BPDA powder at 400 nm: 72%

## O=C1OC(=O)c2cc(-c3ccc4c(c3)C(=O)OC4=O)ccc21 [Comparative Example D5, 3,3′,4,4′-Biphenyltetracarboxylic dianhydride, reference compound]
[2]
  light transmittance of obtained s-BPDA powder at 400 nm: 3%

## O=C1OC(=O)c2c1cccc2-c1cccc2c1C(=O)OC2=O [Comparative Example F1, 2,2′,3,3′-Biphenyltetracarboxylic dianhydride, reference compound]
[4]
  Light Transmittance at 400 nm (i-BPDA): 79%

## O=C1OC(=O)c2c1cccc2-c1cccc2c1C(=O)OC2=O [Comparative Example F2, 2,2′,3,3′-Biphenyltetracarboxylic dianhydride, reference compound]
[4]
  Light Transmittance at 400 nm (i-BPDA): 79%
[5]
  Solubility at 25° C.: <0.1 g/100 g

## O=C1OC(=O)c2c1cccc2-c1cccc2c1C(=O)OC2=O [Comparative Example F3, 2,2′,3,3′-Biphenyltetracarboxylic dianhydride, reference compound]
[4]
  Light Transmittance at 400 nm (i-BPDA): 66%

## O=C1OC(=O)c2cc(-c3cccc4c3C(=O)OC4=O)ccc21 [Example C1, 2,3,3′,4′-Biphenyltetracarboxylic dianhydride]
[1]
  light transmittance at 400 nm (a-BPDA powder): 98%

## O=C1OC(=O)c2cc(-c3cccc4c3C(=O)OC4=O)ccc21 [Example C2, 2,3,3′,4′-Biphenyltetracarboxylic dianhydride]
[1]
  light transmittance at 400 nm (a-BPDA powder): 97%

## O=C1OC(=O)c2cc(-c3cccc4c3C(=O)OC4=O)ccc21 [Example C3, 2,3,3′,4′-Biphenyltetracarboxylic dianhydride]
[1]
  light transmittance at 400 nm (a-BPDA powder): 94%

## O=C1OC(=O)c2cc(-c3cccc4c3C(=O)OC4=O)ccc21 [Example C4, 2,3,3′,4′-Biphenyltetracarboxylic dianhydride]
[1]
  light transmittance at 400 nm (a-BPDA powder): 92%

## O=C1OC(=O)c2cc(-c3cccc4c3C(=O)OC4=O)ccc21 [Example C5, 2,3,3′,4′-Biphenyltetracarboxylic dianhydride]
[1]
  light transmittance at 400 nm (a-BPDA powder): 89%

## O=C1OC(=O)c2cc(-c3ccc4c(c3)C(=O)OC4=O)ccc21 [Example D1, 3,3′,4,4′-Biphenyltetracarboxylic dianhydride]
[2]
  light transmittance of obtained s-BPDA powder at 400 nm: 81%
[3]
  Solubility of used solvent at 25° C.: 1.3 g/100 g

## O=C1OC(=O)c2cc(-c3ccc4c(c3)C(=O)OC4=O)ccc21 [Example D2, 3,3′,4,4′-Biphenyltetracarboxylic dianhydride]
[2]
  light transmittance of obtained s-BPDA powder at 400 nm: 81%

## O=C1OC(=O)c2cc(-c3ccc4c(c3)C(=O)OC4=O)ccc21 [Example D3, 3,3′,4,4′-Biphenyltetracarboxylic dianhydride]
[2]
  light transmittance of obtained s-BPDA powder at 400 nm: 82%
[3]
  Solubility of used solvent at 25° C.: 2.3 g/100 g

## O=C1OC(=O)c2cc(-c3ccc4c(c3)C(=O)OC4=O)ccc21 [Example D4, 3,3′,4,4′-Biphenyltetracarboxylic dianhydride]
[2]
  light transmittance of obtained s-BPDA powder at 400 nm: 78%

## O=C1OC(=O)c2cc(-c3ccc4c(c3)C(=O)OC4=O)ccc21 [Example D5, 3,3′,4,4′-Biphenyltetracarboxylic dianhydride]
[3]
  Solubility of used solvent at 25° C.: 0.1 g/100 g

## O=C1OC(=O)c2cc(-c3ccc4c(c3)C(=O)OC4=O)ccc21 [Example D6, 3,3′,4,4′-Biphenyltetracarboxylic dianhydride]
[3]
  Solubility of used solvent at 25° C.: 0.4 g/100 g

## O=C1OC(=O)c2cc(-c3ccc4c(c3)C(=O)OC4=O)ccc21 [Example D7, 3,3′,4,4′-Biphenyltetracarboxylic dianhydride]
[2]
  light transmittance of obtained s-BPDA powder at 400 nm: 79%
[3]
  Solubility of used solvent at 25° C.: 0.3 g/100 g

## O=C1OC(=O)c2cc(-c3ccc4c(c3)C(=O)OC4=O)ccc21 [Example D8, 3,3′,4,4′-Biphenyltetracarboxylic dianhydride]
[2]
  light transmittance of obtained s-BPDA powder at 400 nm: 91%

## N[C@H]1CC[C@H](N)CC1 [Example E2, trans-1,4-diaminocyclohexane]
[6]
  Light Transmittance at 400 nm (trans-1,4-diaminocyclohexane powder): 96%

## O=C1OC(=O)c2c1cccc2-c1cccc2c1C(=O)OC2=O [Example F1, 2,2′,3,3′-Biphenyltetracarboxylic dianhydride]
[4]
  Light Transmittance at 400 nm (i-BPDA): 91%
[5]
  Solubility at 25° C.: 3.2 g/100 g

## O=C1OC(=O)c2c1cccc2-c1cccc2c1C(=O)OC2=O [Example F2, 2,2′,3,3′-Biphenyltetracarboxylic dianhydride]
[4]
  Light Transmittance at 400 nm (i-BPDA): 92%
[5]
  Solubility at 25° C.: 4.4 g/100 g

## O=C1OC(=O)c2c1cccc2-c1cccc2c1C(=O)OC2=O [Example F3, 2,2′,3,3′-Biphenyltetracarboxylic dianhydride]
[4]
  Light Transmittance at 400 nm (i-BPDA): 93%
[5]
  Solubility at 25° C.: 6.8 g/100 g

## O=C1OC(=O)c2c1cccc2-c1cccc2c1C(=O)OC2=O [Example F4, 2,2′,3,3′-Biphenyltetracarboxylic dianhydride]
[4]
  Light Transmittance at 400 nm (i-BPDA): 93%

## O=C1OC(=O)c2c1cccc2-c1cccc2c1C(=O)OC2=O [Example F5, 2,2′,3,3′-Biphenyltetracarboxylic dianhydride]
[4]
  Light Transmittance at 400 nm (i-BPDA): 91%

## O=C1OC(=O)c2c1cccc2-c1cccc2c1C(=O)OC2=O [Example F6, 2,2′,3,3′-Biphenyltetracarboxylic dianhydride]
[4]
  Light Transmittance at 400 nm (i-BPDA): 95%

## O=C1OC(=O)c2c1cccc2-c1cccc2c1C(=O)OC2=O [Example F7, 2,2′,3,3′-Biphenyltetracarboxylic dianhydride]
[4]
  Light Transmittance at 400 nm (i-BPDA): 89%

## CN1CCCC1=O [NMP (99.62%), N-methyl-2-pyrrolidone]
[7]
  Light Transmittance at 400 nm after reflux (solvent): 0.1%
[8]
  Light Transmittance at 400 nm (solvent): 88%

## CN1CCCC1=O [NMP (99.96%), N-methyl-2-pyrrolidone]
[7]
  Light Transmittance at 400 nm after reflux (solvent): 41%
[8]
  Light Transmittance at 400 nm (solvent): 89%

## N[C@H]1CC[C@H](N)CC1 [Referential Example E1, trans-1,4-diaminocyclohexane]
[6]
  Light Transmittance at 400 nm (trans-1,4-diaminocyclohexane powder): 86%

## N[C@H]1CC[C@H](N)CC1 [Referential Example E2, trans-1,4-diaminocyclohexane]
[6]
  Light Transmittance at 400 nm (trans-1,4-diaminocyclohexane powder): 89%
